Where two headings read alike, the source gives them in different places.
Key:
Test in all cases: Kinase panel
Assay type in all cases: biochemical
[1] = target: ALK (Homo sapiens, UniProt Q9UM73); settings: read-out: residual enzyme activity
Procedure, shortened: (§1)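 Kinase profiling used a full biochemical panel. Test compound concentration: 1 µM, single point. Output: calculated residual activity, with kinases at or under 40% reported.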

[2] = target: ALK1/ACVRL1 (Homo sapiens, UniProt P37023); settings: ALK1/ACVRL1, 1 µM; read-out: residual enzyme activity
Procedure, shortened: as §1

[3] = target: ALK3/BMPR1A (Homo sapiens, UniProt P36894); settings: read-out: residual enzyme activity
Procedure, shortened: as §1

[4] = target: BMPR2 (Homo sapiens, UniProt Q13873); settings: BMPR2, 1 µM; read-out: residual enzyme activity
Procedure, shortened: as §1

[5] = target: BTK (Homo sapiens, UniProt Q06187); settings: read-out: residual enzyme activity
Procedure, shortened: as §1

[6] = target: CAMK2D (Homo sapiens, UniProt Q13557); settings: read-out: residual enzyme activity
Procedure, shortened: as §1

[7] = target: CAMK4 (Homo sapiens, UniProt Q16566); settings: CAMK4, 1 µM; read-out: residual enzyme activity
Procedure, shortened: as §1

[8] = target: CDK1/CYCLIN A (Homo sapiens, UniProt P06493); settings: read-out: residual enzyme activity
Procedure, shortened: as §1

[9] = target: CDK3/CYCLIN E (Homo sapiens, UniProt Q00526); settings: read-out: residual enzyme activity
Procedure, shortened: as §1

[10] = target: CDK6/CYCLIN D1 (Homo sapiens, UniProt Q00534); settings: CDK6/cyclin D1, 1 µM; read-out: residual enzyme activity
Procedure, shortened: as §1

[11] = target: CDK6/CYCLIN D3 (Homo sapiens, UniProt Q00534); settings: CDK6/cyclin D3, 1 µM; read-out: residual enzyme activity
Procedure, shortened: as §1

[12] = target: CK2A (Homo sapiens, UniProt P68400); settings: read-out: residual enzyme activity
Procedure, shortened: as §1

[13] = target: CKIEPSILON (Homo sapiens, UniProt P49674); settings: read-out: residual enzyme activity
Procedure, shortened: as §1

[14] = target: DAPK1 (Homo sapiens, UniProt P53355); settings: DAPK1, 1 µM; read-out: residual enzyme activity
Procedure, shortened: as §1

[15] = target: EPHA7 (Homo sapiens, UniProt Q15375); settings: EPHA7, 1 µM; read-out: residual enzyme activity
Procedure, shortened: as §1

[16] = target: EPHAS (Homo sapiens, UniProt P54756); settings: read-out: residual enzyme activity
Procedure, shortened: as §1

[17] = target: GRK4 (Homo sapiens, UniProt P32298); settings: GRK4, 1 µM; read-out: residual enzyme activity
Procedure, shortened: as §1

[18] = target: IGFIR (Homo sapiens, UniProt P08069); settings: read-out: residual enzyme activity
Procedure, shortened: as §1

[19] = target: IRR/INSRR (Homo sapiens, UniProt P14616); settings: read-out: residual enzyme activity
Procedure, shortened: as §1

[20] = target: ITK (Homo sapiens, UniProt Q08881); settings: read-out: residual enzyme activity
Procedure, shortened: as §1

[21] = target: JAK2 (Homo sapiens, UniProt O60674); settings: JAK2, 1 µM; read-out: residual enzyme activity
Procedure, shortened: as §1

[22] = target: JNK2 (Homo sapiens, UniProt P45984); settings: read-out: residual enzyme activity
Procedure, shortened: as §1

[23] = target: MLCK/MYLK (Homo sapiens, UniProt Q15746); settings: read-out: residual enzyme activity
Procedure, shortened: as §1

[24] = target: MYO3B (Homo sapiens, UniProt Q8WXR4); settings: read-out: residual enzyme activity
Procedure, shortened: as §1

[25] = target: P38B/MAPK11 (Homo sapiens, UniProt Q15759); settings: read-out: residual enzyme activity
Procedure, shortened: as §1

[26] = target: PAK4 (Homo sapiens, UniProt O96013); settings: PAK4, 1 µM; read-out: residual enzyme activity
Procedure, shortened: as §1

[27] = target: PDGFRA (Homo sapiens, UniProt P16234); settings: read-out: residual enzyme activity
Procedure, shortened: as §1

[28] = target: PKCB1 (Homo sapiens, UniProt P05771); settings: read-out: residual enzyme activity
Procedure, shortened: as §1

[29] = target: PLK1 (Homo sapiens, UniProt P53350); settings: PLK1, 1 µM; read-out: residual enzyme activity
Procedure, shortened: as §1

[30] = target: PLK3 (Homo sapiens, UniProt Q9H4B4); settings: PLK3, 1 µM; read-out: residual enzyme activity
Procedure, shortened: as §1

[31] = target: RIPK4 (Homo sapiens, UniProt P57078); settings: RIPK4, 1 µM; read-out: residual enzyme activity
Procedure, shortened: as §1

[32] = target: ROCK2 (Homo sapiens, UniProt O75116); settings: ROCK2, 1 µM; read-out: residual enzyme activity
Procedure, shortened: as §1

[33] = target: STK16 (Homo sapiens, UniProt O75716); settings: STK16, 1 µM; read-out: residual enzyme activity
Procedure, shortened: as §1

[34] = target: TAOK3/JIK (Homo sapiens, UniProt Q9H2K8); settings: read-out: residual enzyme activity
Procedure, shortened: as §1

PAK4, sequence (O96013 whole entry, species assumed): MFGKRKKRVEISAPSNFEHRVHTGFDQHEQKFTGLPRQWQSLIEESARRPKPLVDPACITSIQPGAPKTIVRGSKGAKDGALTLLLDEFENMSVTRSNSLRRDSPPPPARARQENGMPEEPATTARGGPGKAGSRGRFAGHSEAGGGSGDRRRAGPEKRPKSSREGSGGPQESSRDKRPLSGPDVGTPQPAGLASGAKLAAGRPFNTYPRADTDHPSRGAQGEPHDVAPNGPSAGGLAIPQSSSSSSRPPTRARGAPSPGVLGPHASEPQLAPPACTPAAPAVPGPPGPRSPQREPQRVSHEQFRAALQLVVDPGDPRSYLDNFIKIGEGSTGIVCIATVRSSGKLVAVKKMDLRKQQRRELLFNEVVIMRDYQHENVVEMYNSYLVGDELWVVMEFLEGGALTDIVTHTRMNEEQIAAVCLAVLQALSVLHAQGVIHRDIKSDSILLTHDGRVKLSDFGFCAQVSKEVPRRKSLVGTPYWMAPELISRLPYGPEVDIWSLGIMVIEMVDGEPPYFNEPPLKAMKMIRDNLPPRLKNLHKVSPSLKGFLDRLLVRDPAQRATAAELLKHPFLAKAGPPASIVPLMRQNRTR
JNK2, sequence (P45984 whole entry, species assumed): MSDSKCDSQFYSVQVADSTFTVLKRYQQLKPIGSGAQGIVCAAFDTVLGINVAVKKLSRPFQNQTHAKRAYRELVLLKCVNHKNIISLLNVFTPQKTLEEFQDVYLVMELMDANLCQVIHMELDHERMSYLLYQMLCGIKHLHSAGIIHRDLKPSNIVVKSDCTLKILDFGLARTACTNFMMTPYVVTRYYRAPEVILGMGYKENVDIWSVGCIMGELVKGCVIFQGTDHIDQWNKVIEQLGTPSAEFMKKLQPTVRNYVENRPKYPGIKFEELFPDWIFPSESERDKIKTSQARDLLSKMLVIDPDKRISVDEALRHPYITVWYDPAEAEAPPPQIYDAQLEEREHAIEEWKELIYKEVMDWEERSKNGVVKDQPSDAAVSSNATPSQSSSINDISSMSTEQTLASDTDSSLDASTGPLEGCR
EPHA7, sequence (Q15375 28-998, species assumed): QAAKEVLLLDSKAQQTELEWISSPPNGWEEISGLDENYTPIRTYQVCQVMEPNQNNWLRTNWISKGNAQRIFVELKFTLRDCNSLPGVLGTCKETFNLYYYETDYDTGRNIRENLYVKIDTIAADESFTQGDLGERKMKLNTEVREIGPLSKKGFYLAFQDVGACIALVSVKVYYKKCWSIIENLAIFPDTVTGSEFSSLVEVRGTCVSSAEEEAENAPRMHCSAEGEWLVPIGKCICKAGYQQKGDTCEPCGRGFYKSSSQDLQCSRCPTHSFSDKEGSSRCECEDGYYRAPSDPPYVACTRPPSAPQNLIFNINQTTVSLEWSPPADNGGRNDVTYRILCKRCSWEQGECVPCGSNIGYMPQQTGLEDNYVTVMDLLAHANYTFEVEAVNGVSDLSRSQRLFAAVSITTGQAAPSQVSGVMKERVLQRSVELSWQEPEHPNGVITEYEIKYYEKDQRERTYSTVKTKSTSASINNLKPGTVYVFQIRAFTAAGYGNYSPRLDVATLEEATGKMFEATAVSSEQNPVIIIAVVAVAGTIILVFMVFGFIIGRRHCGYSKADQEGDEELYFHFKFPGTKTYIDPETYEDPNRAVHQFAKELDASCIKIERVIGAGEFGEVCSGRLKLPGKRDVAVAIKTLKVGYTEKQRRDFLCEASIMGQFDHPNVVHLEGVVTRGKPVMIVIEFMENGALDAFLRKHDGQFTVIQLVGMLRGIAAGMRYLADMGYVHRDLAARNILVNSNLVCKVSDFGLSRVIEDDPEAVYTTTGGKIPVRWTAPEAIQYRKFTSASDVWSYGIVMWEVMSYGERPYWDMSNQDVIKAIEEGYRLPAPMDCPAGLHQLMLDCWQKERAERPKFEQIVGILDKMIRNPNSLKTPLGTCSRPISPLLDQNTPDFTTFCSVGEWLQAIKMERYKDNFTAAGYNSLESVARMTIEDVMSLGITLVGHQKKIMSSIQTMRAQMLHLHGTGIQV
EPHAS, sequence (P54756 25-1037): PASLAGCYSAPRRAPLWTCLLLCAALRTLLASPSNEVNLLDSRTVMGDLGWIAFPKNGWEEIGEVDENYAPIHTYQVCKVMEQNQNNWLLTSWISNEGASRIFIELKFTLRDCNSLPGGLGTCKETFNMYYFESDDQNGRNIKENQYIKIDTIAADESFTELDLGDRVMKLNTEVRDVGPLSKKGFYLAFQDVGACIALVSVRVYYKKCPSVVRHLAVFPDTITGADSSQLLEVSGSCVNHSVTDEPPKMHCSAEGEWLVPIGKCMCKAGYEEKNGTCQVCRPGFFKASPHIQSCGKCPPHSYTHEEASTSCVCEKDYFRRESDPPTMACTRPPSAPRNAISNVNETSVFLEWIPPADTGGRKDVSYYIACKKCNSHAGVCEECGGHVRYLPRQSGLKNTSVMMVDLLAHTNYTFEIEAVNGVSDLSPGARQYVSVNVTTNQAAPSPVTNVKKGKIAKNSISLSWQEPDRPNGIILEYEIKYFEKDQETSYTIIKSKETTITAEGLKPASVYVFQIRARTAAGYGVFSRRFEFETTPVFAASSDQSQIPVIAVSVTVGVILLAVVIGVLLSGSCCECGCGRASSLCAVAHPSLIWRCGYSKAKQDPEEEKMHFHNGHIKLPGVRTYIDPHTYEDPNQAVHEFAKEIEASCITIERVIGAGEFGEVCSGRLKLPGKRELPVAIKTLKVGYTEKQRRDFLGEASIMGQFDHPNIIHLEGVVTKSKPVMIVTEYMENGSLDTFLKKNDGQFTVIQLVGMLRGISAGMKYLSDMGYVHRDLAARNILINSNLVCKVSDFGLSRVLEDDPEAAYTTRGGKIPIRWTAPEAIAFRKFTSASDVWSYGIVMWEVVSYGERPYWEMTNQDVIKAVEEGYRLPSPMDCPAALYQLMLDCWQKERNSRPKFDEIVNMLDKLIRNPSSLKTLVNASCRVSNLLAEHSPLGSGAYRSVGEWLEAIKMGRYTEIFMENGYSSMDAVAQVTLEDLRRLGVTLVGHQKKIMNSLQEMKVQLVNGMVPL
CDK6/CYCLIN D3, sequence (Q00534 whole entry, species assumed): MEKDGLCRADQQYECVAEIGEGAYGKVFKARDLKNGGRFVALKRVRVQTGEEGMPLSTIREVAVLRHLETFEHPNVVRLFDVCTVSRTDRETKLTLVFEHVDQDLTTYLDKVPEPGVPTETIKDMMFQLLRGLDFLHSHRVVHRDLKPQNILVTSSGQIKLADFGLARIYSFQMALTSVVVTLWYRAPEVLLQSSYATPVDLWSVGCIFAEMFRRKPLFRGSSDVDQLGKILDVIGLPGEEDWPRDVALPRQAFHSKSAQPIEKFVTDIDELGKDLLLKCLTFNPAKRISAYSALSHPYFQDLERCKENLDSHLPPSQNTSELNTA
CDK6/CYCLIN D3, sequence (P30281 whole entry partner, species assumed): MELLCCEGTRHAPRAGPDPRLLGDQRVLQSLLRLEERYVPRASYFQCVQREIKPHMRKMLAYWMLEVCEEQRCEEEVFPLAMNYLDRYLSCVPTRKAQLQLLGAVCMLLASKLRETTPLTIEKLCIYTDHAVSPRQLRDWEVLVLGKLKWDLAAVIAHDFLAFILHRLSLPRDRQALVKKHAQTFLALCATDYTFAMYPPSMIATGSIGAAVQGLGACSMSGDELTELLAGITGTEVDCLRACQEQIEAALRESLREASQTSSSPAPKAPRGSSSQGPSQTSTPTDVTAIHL
CDK6/CYCLIN D1, sequence (Q00534 whole entry, species assumed): as the sequence (Q00534 whole entry, species assumed) above
CDK6/CYCLIN D1, sequence (P24385 whole entry partner, species assumed): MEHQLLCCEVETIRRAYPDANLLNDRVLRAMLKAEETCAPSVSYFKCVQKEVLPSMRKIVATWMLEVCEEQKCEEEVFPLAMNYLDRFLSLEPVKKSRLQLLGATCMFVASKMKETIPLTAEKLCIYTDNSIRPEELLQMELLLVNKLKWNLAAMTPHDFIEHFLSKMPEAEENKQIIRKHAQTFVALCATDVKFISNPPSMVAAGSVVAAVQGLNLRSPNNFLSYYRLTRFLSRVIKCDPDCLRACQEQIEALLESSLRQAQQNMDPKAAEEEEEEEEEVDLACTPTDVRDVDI
CAMK4, sequence (Q16566 whole entry, species assumed): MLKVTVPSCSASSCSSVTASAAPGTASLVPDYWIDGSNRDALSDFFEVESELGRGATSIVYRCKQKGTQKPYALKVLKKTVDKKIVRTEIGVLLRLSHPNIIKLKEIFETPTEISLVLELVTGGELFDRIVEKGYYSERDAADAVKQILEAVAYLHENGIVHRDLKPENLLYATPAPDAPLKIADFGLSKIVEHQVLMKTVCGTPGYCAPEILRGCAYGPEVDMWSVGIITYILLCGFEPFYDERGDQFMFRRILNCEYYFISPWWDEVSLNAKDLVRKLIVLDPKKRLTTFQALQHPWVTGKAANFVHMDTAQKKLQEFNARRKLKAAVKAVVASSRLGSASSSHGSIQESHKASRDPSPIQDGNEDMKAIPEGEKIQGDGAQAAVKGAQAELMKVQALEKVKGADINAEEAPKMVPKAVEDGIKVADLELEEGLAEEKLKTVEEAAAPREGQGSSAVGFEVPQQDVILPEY
CK2A, sequence (P68400 whole entry): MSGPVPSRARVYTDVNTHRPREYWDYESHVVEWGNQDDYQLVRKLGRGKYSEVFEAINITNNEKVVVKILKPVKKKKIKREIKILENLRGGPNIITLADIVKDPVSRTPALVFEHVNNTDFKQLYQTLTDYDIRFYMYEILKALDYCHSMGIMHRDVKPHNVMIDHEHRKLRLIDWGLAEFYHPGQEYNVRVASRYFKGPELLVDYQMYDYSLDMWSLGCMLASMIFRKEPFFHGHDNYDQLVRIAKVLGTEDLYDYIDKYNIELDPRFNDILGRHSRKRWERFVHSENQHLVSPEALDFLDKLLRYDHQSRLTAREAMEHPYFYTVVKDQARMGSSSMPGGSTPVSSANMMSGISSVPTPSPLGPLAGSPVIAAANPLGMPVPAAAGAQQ

Row | Structure (SMILES) | remaining activity at 1 µM [1] [%] | remaining activity at 1 µM [2] [%] | remaining activity at 1 µM [3] [%] | remaining activity at 1 µM [4] [%] | remaining activity at 1 µM [5] [%] | remaining activity at 1 µM [7] [%] | remaining activity at 1 µM [8] [%] | remaining activity at 1 µM [9] [%] | remaining activity at 1 µM [10] [%] | remaining activity at 1 µM [11] [%] | remaining activity at 1 µM [14] [%] | remaining activity at 1 µM [15] [%] | remaining activity at 1 µM [17] [%] | remaining activity at 1 µM [18] [%] | remaining activity at 1 µM [19] [%] | remaining activity at 1 µM [20] [%] | remaining activity at 1 µM [21] [%] | remaining activity at 1 µM [23] [%] | remaining activity at 1 µM [26] [%] | remaining activity at 1 µM [27] [%] | further results
1 | Cc1cn(-c2cc(C(=O)Nc3ccc(C)c(N4Cc5cnc(NC6CC6)nc5C5(CC5)C4=O)c3)cc(C(F)(F)F)c2)cn1 [Compound 8, N-(3-(2'-(cyclopropylamino)-7'-oxo-5'H-spiro[cyclopropane-1,8'-pyrido[4,3-d]pyrimidine]-6'(7'H)-yl)-4-methylphenyl)-3-(4-methyl-1H-imidazol-1-yl)-5-(trifluoromethyl)benzamide] | > 40 | > 40 | > 40 | > 40 | ≤ 40 | > 40 | > 40 | > 40 | > 40 | > 40 | > 40 | ≤ 40 | > 40 | > 40 | > 40 | > 40 | ≤ 40 | > 40 | > 40 | ≤ 40 | remaining activity at 1 µM ([6]; CAMK2D): > 40%; remaining activity at 1 µM ([12]; CK2A): > 40%; remaining activity at 1 µM ([13]; CKIEPSILON): > 40%; remaining activity at 1 µM ([16]; EPHAS (row 107), 1 µM): ≤ 40%; remaining activity at 1 µM ([22]; JNK2, 1 µM): > 40%; remaining activity at 1 µM ([24]; MYO3B): > 40%; remaining activity at 1 µM ([25]; P38B/MAPK11, 1 µM): ≤ 40%; remaining activity at 1 µM ([28]; PKCB1, 1 µM): > 40%; remaining activity at 1 µM [29]: > 40%; remaining activity at 1 µM [30]: > 40%; remaining activity at 1 µM [31]: > 40%; remaining activity at 1 µM [32]: > 40%; remaining activity at 1 µM [33]: > 40%; remaining activity at 1 µM [34]: ≤ 40%
2 | Cc1ccc(Nc2ncc3c(n2)C2(CC2)C(=O)N(c2cc(NC(=O)c4cccc(C(F)(F)F)c4)ccc2C)C3)cn1 [Compound 51, N-(4-methyl-3-(2'-((6-methylpyridin-3-yl)amino)-7'-oxo-5'H-spiro[cyclopropane-1,8'-pyrido[4,3-d]pyrimidine]-6'(7'H)-yl)phenyl)-3-(trifluoromethyl)benzamide] | > 40 | > 40 | > 40 | > 40 | ≤ 40 | > 40 | > 40 | > 40 | > 40 | > 40 | > 40 | ≤ 40 | > 40 | > 40 | > 40 | > 40 | ≤ 40 | > 40 | > 40 | ≤ 40 | remaining activity at 1 µM ([6]; CAMK2d): > 40%; remaining activity at 1 µM ([12]; CK2a): > 40%; remaining activity at 1 µM ([13]; CKlepsilon): > 40%; remaining activity at 1 µM ([16]; EPHA5, 1 µM): ≤ 40%; remaining activity at 1 µM ([22]; INK2, 1 µM): ≤ 40%; remaining activity at 1 µM ([24]; MYO3b): > 40%; remaining activity at 1 µM ([25]; P38b/MAPK11, 1 µM): ≤ 40%; remaining activity at 1 µM ([28]; PKCbl, 1 µM): > 40%; remaining activity at 1 µM [29]: > 40%; remaining activity at 1 µM [30]: > 40%; remaining activity at 1 µM [31]: > 40%; remaining activity at 1 µM [32]: > 40%; remaining activity at 1 µM [33]: > 40%; remaining activity at 1 µM [34]: ≤ 40%
